Data published in patent US20160237450A1, “METHOD FOR ENHANCING DROUGHT TOLERANCE IN PLANTS” (Plant Response Biotech S.L., priority 2015, published 2016).

Assays:
Format in all cases: in vivo
[1] = tested on: broccoli plants (Parthenon); experiment: Broccoli inflorescence fresh weight with constant TMAO irrigation; settings: 100% water; constant irrigation with 1 g/L
Excerpt: TMAO di-hydrate applied exogenously which increases the endogenous content of TMAO as if the plants were overexpressing an FMO protein at least 4 times increases plant production in broccoli. Parthenon broccoli seeds were sown, grown and treated as described above. Constant irrigation with 1 g/L TMAO di-hydrate increased plant inflorescence production.

[2] = tested on: tomato plants ('Rio Grande'); experiment: Tomato fruit production under limited water irrigation; settings: 30% water irrigation; 1 g/L spray every 4 weeks
Excerpt: TMAO di-hydrate applied exogenously which increases the endogenous content of TMAO as if the plants were overexpressing an FMO protein at least 4 times increases plant production in tomato under limited water irrigation. ‘Rio Grande’ tomato seeds were sown, grown and treated as described. Spray treatments with 1 g/L TMAO di-hydrate increased both fruit size and fruit production.

[3] = tested on: broccoli plants (Parthenon); experiment: Yield production without drought stress, broccoli; settings: 1 g/l spray every 4 weeks for 3 months, no drought stress
Description: In order to determine the plant yield productivity under normal conditions, ‘Sabrina’, ‘Candonga’ and ‘Fortuna’ strawberry varieties, leek, lettuce, “Iceberg” variety, broccoli “Parthenon” variety, celery or kohlrabi plants, were grown under standard production conditions and 120 plants of each variety per treatment (where the treatment was a control comprising standard watering or 1 g/L of TMAO di-hydrate spray every four weeks) were analyzed. Plants were located in four (4) different positions for each group of 30 plants from the same treatment. Fruits, leaves or roots were harvested from individual plants and total weight was determined for each plant.
Root or leaves yield was determined in the plants treated with 1 g/l of TMAO di-hydrate or water as described above in order to evaluate the trade-off costs of the treatment with no drought stress.

[4] = tested on: cucumber plants ('Marketer'); experiment: Cucumber plant survival under extreme drought
Description: (§1) For each drought or limited water experiment 480 seeds (of either pepper, barley, tomato, cucumber or corn) were sown, producing 384 plants in 512 cm^3 pots (4 plants per pot). Plants were grown under chamber conditions at 21° C. for 3 weeks. Then, the plants were moved to a greenhouse, where average temperature was 25° C. to 28° C. Spray and irrigation treatments as described herein were done when the plants had two extended leaves and the next pair of leaves were coming up.
(§2) Treatments: Twelve pots (containing 48 plants) were irrigated with 40 ml of either: water, 0.1 g/L TMAO di-hydrate solution, 1.0 g/L TMAO di-hydrate solution, or 5.5 g/L TMAO di-hydrate solution. Another set of 12 pots containing 48 plants were sprayed with 40 ml of either water (3.3 ml in average per pot), a solution containing 0.1 g/L TMAO di-hydrate solution, 1.0 g/L TMAO di-hydrate, or 5 g/L, or 10 g/L TMAO di-hydrate. Further sets of 12 pots containing 48 plants were both sprayed with each initial solution TMAO di-hydrate solution and further irrigated with the same TMAO di-hydrate solutions used in the control water sprayed plants. All pots were also watered with 40 ml of water. The sprayed plants were watered with the same volume of water as the “irrigated plants). The pots were located on plastic glass to maintain constant moisture and to avoid liquid spillage during watering. Trays containing the pots were located on greenhouse tables. The distribution of the trays on the table and the position on the pots in the tray was changed every week to avoid position effects.
(§3) After the treatments described above, the plants were not watered until the pots completely lost their moisture, taking about 4 to 8 days depending on the season, at which point the plants were extremely wilted for the extreme drought experiments. The plants were then watered once with solutions containing the different amounts of TMAO di-hydrate (0.1 g/L, 1.0 g/L, 5 g/L, or 10 g/L) or just water, after which the plants were left to lose their moisture completely again for three consecutive cycles of watering after wilting. For the “extreme drought” experiments plants were allowed to wilt severely before watering and then the plant survival rate was recorded and analyzed.
TMAO di-hydrate applied exogenously which increases the endogenous content of TMAO as if the plants were overexpressing an FMO protein at least 4 times increases plant survival in cucumber under extreme drought conditions. ‘Marketer’ cucumber seeds were sown, grown and treated as described above.

pepper plants ('Murano') = experiment: Pepper plant survival under extreme drought
Description: as §1, §2, §3
TMAO di-hydrate applied exogenously, which increases the endogenous content of TMAO as if the plants were overexpressing an FMO protein at least 4 times increases plant survival in pepper plants under extreme drought conditions. ‘Murano’ pepper seeds were sown, grown and treated as described above.

[5] = irrigation 0.1 g/L, initial spray 0.1 g/L
[6] = irrigation 0.1 g/L, initial spray 1 g/L
[7] = irrigation 0.1 g/L, initial spray water
[8] = irrigation 1 g/L, initial spray 0.1 g/L
[9] = irrigation 1 g/L, initial spray 1 g/L
[10] = irrigation 1 g/L, initial spray water
[11] = irrigation 5 g/L, initial spray 0.1 g/L
[12] = irrigation 5 g/L, initial spray 1 g/L
[13] = irrigation 5 g/L, initial spray water
[14] = irrigation all regimes, initial spray 0.1 g/L
[15] = irrigation all regimes, initial spray 1 g/L
[16] = irrigation water, initial spray 0.1 g/L
[17] = irrigation water, initial spray 1 g/L

With C[N+](C)(C)[O-].O.O [TMAO di-hydrate, trimethylamine N-oxide di-hydrate] as the molecule, how does the “AVERAGE FRESH WEIGHT (GRAMS) PER INFLORESCENCE” value [1] read?
The value was 220.2 ± 16.6 GRAMS.

What about the “increase of broccoli inflorescence fresh weight” value [1] of the same molecule?
Its value is 70%.

What about the “AVERAGE WEIGHT (grams/fruit)” value [2] of the same molecule?
The value was 76.73 ± 17.67 grams/fruit.

What about the “increase of fruit production over untreated plants with 30% irrigation” value [2] of the same molecule?
The value was 45%.

What about the “Yield production, % Control” value [3] of the same molecule?
Its value is 120%.

What about the “SURVIVAL RATE (%)” value [4, 5] of the same molecule?
Its value is 82.9 ± 7.4%.

What about the “SURVIVAL RATE (%)” value [4, 6] of the same molecule?
Its value is 91.6 ± 7.4%.

What about the “SURVIVAL RATE (%)” value ([4]; irrigation 0.1 g/L, initial spray 5 g/L) of the same molecule?
Its value is 95.8 ± 7.4%.

What about the “SURVIVAL RATE (%)” value [4, 7] of the same molecule?
Its value is 45.8 ± 7.4%.

What about the “SURVIVAL RATE (%)” value [4, 8] of the same molecule?
The value was 91.6 ± 5.9%.

What about the “SURVIVAL RATE (%)” value [4, 9] of the same molecule?
Its value is 91.6 ± 5.9%.

What about the “SURVIVAL RATE (%)” value ([4]; irrigation 1 g/L, initial spray 5 g/L) of the same molecule?
The value was 91.6 ± 5.9%.

What about the “SURVIVAL RATE (%)” value [4, 10] of the same molecule?
Its value is 87.5 ± 5.9%.

What about the “SURVIVAL RATE (%)” value [4, 11] of the same molecule?
The value was 75.0 ± 7.2%.

And the “SURVIVAL RATE (%)” value [4, 12]?
The value was 95.8 ± 7.2%.

What about the “SURVIVAL RATE (%)” value ([4]; irrigation 5 g/L, initial spray 5 g/L) of the same molecule?
Its value is 95.8 ± 7.2%.

And the “SURVIVAL RATE (%)” value [4, 13]?
The value was 66.6 ± 7.2%.

What about the “SURVIVAL RATE (%)” value [4, 14] of the same molecule?
The value was 80.1 ± 3.4%.

What about the “SURVIVAL RATE (%)” value [4, 15] of the same molecule?
The value was 92.7 ± 3.4%.

What about the “SURVIVAL RATE (%)” value ([4]; irrigation all regimes, initial spray 5 g/L) of the same molecule?
Its value is 94.7 ± 3.4%.

What about the “SURVIVAL RATE (%)” value [4, 16] of the same molecule?
The value was 83.3 ± 7.2%.

And the “SURVIVAL RATE (%)” value [4, 17]?
Its value is 91.6 ± 7.2%.

And the “SURVIVAL RATE (%)” value ([4]; irrigation water, initial spray 5 g/L)?
The value was 95.8 ± 7.2%.

And the “SURVIVAL RATE (%)” value (pepper plants ('Murano'); [5])?
The value was 33.3 ± 8.3%.

And the “SURVIVAL RATE (%)” value (pepper plants ('Murano'); [6])?
The value was 54.1 ± 8.3%.

And the “SURVIVAL RATE (%)” value (pepper plants ('Murano'); irrigation 0.1 g/L, initial spray 10 g/L)?
The value was 83.3 ± 8.3%.

And the “SURVIVAL RATE (%)” value (pepper plants ('Murano'); [7])?
The value was 29.1 ± 8.3%.

What about the “SURVIVAL RATE (%)” value (pepper plants ('Murano'); [8]) of the same molecule?
Its value is 33.3 ± 7.7%.

What about the “SURVIVAL RATE (%)” value (pepper plants ('Murano'); [9]) of the same molecule?
The value was 33.3 ± 7.7%.

And the “SURVIVAL RATE (%)” value (pepper plants ('Murano'); irrigation 1 g/L, initial spray 10 g/L)?
Its value is 37.5 ± 7.7%.

And the “SURVIVAL RATE (%)” value (pepper plants ('Murano'); [10])?
Its value is 0.0 ± 7.7%.

And the “SURVIVAL RATE (%)” value (pepper plants ('Murano'); [11])?
The value was 100 ± 3.8%.

And the “SURVIVAL RATE (%)” value (pepper plants ('Murano'); [12])?
The value was 100 ± 3.8%.

What about the “SURVIVAL RATE (%)” value (pepper plants ('Murano'); irrigation 5 g/L, initial spray 10 g/L) of the same molecule?
Its value is 87.5 ± 3.8%.

And the “SURVIVAL RATE (%)” value (pepper plants ('Murano'); [13])?
The value was 95.8 ± 3.8%.

And the “SURVIVAL RATE (%)” value (pepper plants ('Murano'); [14])?
Its value is 51.0 ± 3.6%.

What about the “SURVIVAL RATE (%)” value (pepper plants ('Murano'); [15]) of the same molecule?
Its value is 62.5 ± 3.6%.

And the “SURVIVAL RATE (%)” value (pepper plants ('Murano'); irrigation all regimes, initial spray 10 g/L)?
Its value is 71.8 ± 3.6%.

And the “SURVIVAL RATE (%)” value (pepper plants ('Murano'); [16])?
Its value is 37.5 ± 8.1%.

And the “SURVIVAL RATE (%)” value (pepper plants ('Murano'); [17])?
The value was 62.5 ± 8.1%.

And the “SURVIVAL RATE (%)” value (pepper plants ('Murano'); irrigation water, initial spray 10 g/L)?
Its value is 79.1 ± 8.1%.
